# Experimental data from ChEMBL document CHEMBL3988181, “GlaxoSmithKline Published Kinase Inhibitor Set 2 Onchocerca lienalis Screening Data”.
# Test: GSK PKIS2: Screen against O. lienalis microfilariae, single point, at 3.1uM to assess reduction in motility. Compounds were also tested for cytotoxicity against Rhesus Monkey LLCMK2 cells.
# Format: functional, Onchocerca lienalis, LLC-MK2
# Settings: CELL_LINE LLCMK2; CELL_SUPPLIER ECACC; CONC 3.1 uM; ORGANISM_SUPPLIER Extracted from peri-umbilical skin obtained from naturally infected cattle in the UK; temperature 37 degree C
row,Compound,MOTILITY REDUCTION/CYTOTOXICITY [%]
1,O=C(Nc1[nH]nc2cc(-c3cccc(F)c3F)ccc12)C1CC1,0
2,Fc1ccc(-c2ncn(CCCN3CCOCC3)c2-c2ccccn2)cc1,13.4
3,Fc1ccc(-c2ncn(CCCN3CCOCC3)c2-c2cccnc2)cc1,0
4,CSc1ccc(-c2nc3n(c2-c2ccncc2)CCC3)cc1,0
5,O=C1NC(=O)C(c2ccccc2Cl)=C1Nc1cccc(Cl)c1,0
6,CSc1ccc(NC2=C(c3ccccc3Cl)C(=O)NC2=O)cc1,0
7,O=C1NC(=O)C(c2ccc(Cl)cc2)=C1Nc1ccc(O)c(Cl)c1,33.4
8,COc1cccc(C2=C(Nc3cc(Cl)c(O)c(Cl)c3)C(=O)NC2=O)c1,0
9,CN1C(=O)C(Nc2ccccc2)=C(c2ccccc2)C1=O,13.4
10,O=C1NC(=O)C(c2ccccc2)=C1Nc1ccc(Cl)c(C(=O)O)c1,0
11,CSc1ccc(NC2=C(c3cccc(Cl)c3)C(=O)NC2=O)cc1,0
12,CNc1ncnc2[nH]ncc12,0
13,CS(=O)(=O)c1ccccc1-c1nc(-c2ccc(F)cc2)c(-c2ccncc2)[nH]1,33.4
14,Clc1ccc(-c2nn3ncccc3c2-c2ccnc(Nc3ccc4c(c3)OCCO4)n2)cc1,0
15,CN1CCN(Cc2ccc(NC(=O)Nc3ccc(N(C)c4ccnc(Nc5ccc(CS(C)(=O)=O)cc5)n4)cc3)cc2)CC1,100
16,Cc1ccc2c(-c3ccnc(Nc4ccc(C(F)(F)F)cc4)n3)cnn2n1,0
17,CCn1c(-c2nonc2N)nc2cncc(CNC3CCNCC3)c21,0
18,CCn1c(-c2c(N)noc2C)nc2cnccc21,0
19,FC(F)(F)c1cc(Nc2nccc(-c3c(-c4ccc(Cl)cc4)nn4ncccc34)n2)ccc1Cl,20
20,COc1ccc(-c2oc3ncnc(N)c3c2-c2ccc(OC)cc2)cc1,20
21,Cn1cc(-c2ccc3c(c2)CCN3C(=O)Cc2cc(F)cc(C(F)(F)F)c2)c2c(N)ncnc21,0
22,COc1ccc2cc(-c3nc(-c4ccccc4C(C)C)[nH]c3-c3ccncc3)ccc2c1,100
23,Nc1n[nH]c2cnc(-c3ccccc3)cc12,0
24,O=C(Nc1n[nH]c2nc(-c3cccs3)c(Br)cc12)C1CC1,0

row,Compound,MOTILITY REDUCTION/CYTOTOXICITY [%]
1,O=C(Nc1n[nH]c2cc(-c3ccoc3)ccc12)C1CC1,13.4
2,Nc1n[nH]c2ncc(-c3ccccc3)cc12,0
3,O=C(Nc1n[nH]c2nc(-c3nccs3)c(Br)cc12)C1CC1,20
4,Cc1ccc(C)c(Oc2nccc(-c3c(-c4ccc(F)cc4)ncn3C3CCNCC3)n2)c1,26.7
5,CCn1cnc2c(NCc3ccccc3)ncnc21,0
6,COc1cccc(-c2[nH]c(-c3ccccc3)nc2-c2ccncc2)c1,33.4
7,COc1ccc(-n2cnc3c(N)ncnc32)cc1,0
8,Cc1cc(-c2c(-c3ccc(F)cc3)ncn2CCCN2CCOCC2)nc(N)n1,0
9,NS(=O)(=O)c1cccc(Nc2cc(-c3ccc(F)cc3)n[nH]2)c1,33.4
10,CNc1nccc(-c2c(-c3ccc(F)cc3)ncn2C2CCN(C)CC2)n1,13.4
11,FC(F)(F)c1ccc(-c2ncn(CCCN3CCOCC3)c2-c2ccncc2)cc1,40
12,O=C1NC(=O)C(c2ccccc2Cl)=C1Nc1ccccc1,0
13,CN1C(=O)C(Nc2cc(Cl)c(O)c(Cl)c2)=C(c2ccc(Cl)cc2)C1=O,0
14,O=C1NC(=O)C(c2ccccc2)=C1Nc1cccc(O)c1,0
15,CN(c1ccc(NC(=O)N2CCN(CCCN3CCOCC3)CC2)cc1)c1ccnc(Nc2ccc(CS(C)(=O)=O)cc2)n1,0
16,CCn1c(-c2nonc2N)nc2cncc(Br)c21,33.4
17,FC(F)(F)c1ccc(-c2nn3ncccc3c2-c2ccnc(Nc3cccc(C(F)(F)F)c3)n2)cc1,0
18,Oc1cc(-c2nc(-c3ccccc3)[nH]c2-c2ccncc2)ccc1Cl,0
19,CN1CCN(CCNc2nc3ccc(Oc4ccc(NC(=O)Nc5cc(C(F)(F)F)ccc5F)cc4)cc3[nH]2)CC1,0
20,CN1CCC(n2cnc(-c3ccc(F)cc3)c2-c2ccnc(NC3CCNCC3)n2)CC1,0
21,CS(=O)(=O)c1ccc(-c2nc3n(c2-c2ccncc2)CCC3)cc1,0
22,CCn1c(-c2ccncc2)nc2cnccc21,0
23,COc1ccc(-c2nc3n(c2-c2ccncc2)CCC3)cc1,0
24,COc1cccc(-c2ccc3c(NC(=O)C4CC4)n[nH]c3n2)c1,20

row,Compound,MOTILITY REDUCTION/CYTOTOXICITY [%]
1,Cc1cc(C)cc(Oc2nccc(-c3c(-c4ccc(F)cc4)ncn3C3CCNCC3)n2)c1,20
2,Cc1ccc(NC(=O)c2ccnc(N3CCN(C)CC3)c2)cc1-c1ccc(C(=O)NCC2CC2)cc1,0
3,Cc1c2ccc(N(C)c3ccnc(Nc4cccc(S(N)(=O)=O)c4)n3)cc2nn1Cc1ccccc1,0
4,c1ccc(-c2ccnc3[nH]ccc23)cc1,33.4
5,O=C(Nc1n[nH]c2nc(-c3ccco3)c(Br)cc12)c1ccc(CN2CCCC2)cc1,0
6,CC(C)(C)c1ccc2nccc(Nc3cccc(O)c3)c2c1,100
7,CN(c1ccc2c(c1)nc(NCc1ccc(F)cc1)n2C)c1ccnc(Nc2ccc(CS(C)(=O)=O)cc2)n1,0
8,COc1ccc(C)c(Nc2ccnc(Nc3ccc(-c4cnc[nH]4)cc3)n2)c1,0
9,NS(=O)(=O)c1cccc(-c2ccc3nccc(-c4cccc(S(N)(=O)=O)c4)c3c2)c1,0
10,COc1cc2nccc(Nc3ccc(OCc4ccc(NC(C)=O)cc4)cc3)c2cc1OC,0
11,COc1cc(Nc2ncc3c(C)nc(-c4cc5ccccc5[nH]4)n3n2)cc(OC)c1OC,53.4
12,FC(F)(F)c1ccc(/C=C/c2cncnc2Nc2ccc3[nH]c(Cc4ccccc4)nc3c2)cc1,100
13,Cc1cccc(-c2nc(Nc3ccncc3)c3ccccc3n2)n1,0
14,CN(c1ccc2c(c1)nc(NCc1ccccc1)n2C)c1ccnc(Nc2ccc(CS(C)(=O)=O)cc2)n1,0
15,O=C(O)c1ccc(-c2nc(-c3ccc(F)cc3)c(-c3ccncc3)[nH]2)cc1,0
16,Fc1ccc(-c2nc[nH]c2-c2ccncc2)cc1,0
17,CCCCCc1nc2c(N)ncnc2n1CCCCC,0
18,Cn1cnc2c(N)ncnc21,0
19,Nc1nc(N)c2[nH]c(-c3ccccc3)nc2n1,20
20,CC(C)N1CCC(n2cnc(-c3ccc(F)cc3)c2-c2ccnc(N)n2)CC1,0
21,Nc1nccc(-c2c(-c3ccc(F)cc3)ncn2C2CCN(CC(F)(F)F)CC2)n1,0
22,CCOC(=O)N1CCC(n2cnc(-c3ccc(F)cc3)c2-c2ccnc(N)n2)CC1,0
